Source: patent US20250154144A1 (CHILDREN'S HOSPITAL MEDICAL CENTER, priority 2021, published 2025)
Like-named read-outs stand apart in the source and are kept apart here.

What was measured:
THP1 cells = experiment: Combination drug screening, Cell Titer Glo, 10 × 10 matrix, THP1 cells; type: cell-based
MOLM14(D835Y) cells = type: cell-based; details: for Excess HSA Score: 10 × 10
[1] = THP1 cells, 10 × 10, combination with (+)-BAY-1251152
[2] = THP1 cells, 10 × 10, combination with AMG-232
[3] = THP1 cells, 10 × 10, combination with AZD-5363
[4] = THP1 cells, 10 × 10, combination with Eprenetapopt/APR-246
[5] = THP1 cells, 10 × 10, combination with Ivosidenib
[6] = THP1 cells, 10 × 10, combination with Lenalidomide
[7] = THP1 cells, 10 × 10, combination with Palbociclib
[8] = THP1 cells, 10 × 10, combination with Prednisolone
[9] = THP1 cells, 10 × 10, combination with SNDX-5613
[10] = THP1 cells, 10 × 10, combination with TNO-155
[11] = THP1 cells, 10 × 10, combination with Trametinib
[12] = THP1 cells, 10 × 10, combination with Ulixertinib
[13] = THP1 cells, 10 × 10, combination with Venetoclax (ABT-199)
[14] = THP1 cells, combination with Venetoclax (ABT-199)
[15] = starting conc. 200 nM, with (+)-BAY-1251152 starting conc. 1000 nM
[16] = starting conc. 200 nM, with Azacitidine (5-Azacytidine) starting conc. 20000 nM
[17] = starting conc. 200 nM, with Palbociclib starting conc. 10000 nM
[18] = starting conc. 200 nM, with Prednisolone starting conc. 10000 nM
[19] = starting conc. 200 nM, with TNO-155 starting conc. 10000 nM
[20] = starting conc. 200 nM, with Venetoclax (ABT-199) starting conc. 2000 nM
[21] = starting conc. 200 nM, with Venetoclax (ABT-199) starting conc. 20000 nM
[22] = starting conc. 20000 nM, with (+)-BAY-1251152 starting conc. 1000 nM
[23] = starting conc. 20000 nM, with Azacitidine (5-Azacytidine) starting conc. 20000 nM
[24] = starting conc. 20000 nM, with Palbociclib starting conc. 10000 nM
[25] = starting conc. 20000 nM, with Prednisolone starting conc. 10000 nM
[26] = starting conc. 20000 nM, with TNO-155 starting conc. 10000 nM
[27] = starting conc. 20000 nM, with Venetoclax (ABT-199) starting conc. 2000 nM
[28] = starting conc. 20000 nM, with Venetoclax (ABT-199) starting conc. 20000 nM
[29] = MOLM14(D835Y) cells, combination with (+)-BAY-1251152
[30] = MOLM14(D835Y) cells, combination with AMG-232
[31] = MOLM14(D835Y) cells, combination with AZD-5363
[32] = MOLM14(D835Y) cells, combination with Eprenetapopt/APR-246
[33] = MOLM14(D835Y) cells, combination with Ivosidenib
[34] = MOLM14(D835Y) cells, combination with Lenalidomide
[35] = MOLM14(D835Y) cells, combination with Palbociclib
[36] = MOLM14(D835Y) cells, combination with Prednisolone
[37] = MOLM14(D835Y) cells, combination with SNDX-5613
[38] = MOLM14(D835Y) cells, combination with TNO-155
[39] = MOLM14(D835Y) cells, combination with Trametinib
[40] = MOLM14(D835Y) cells, combination with Ulixertinib
[41] = MOLM14(D835Y) cells, combination with Venetoclax (ABT-199)

COc1cc2ncc(-c3cncc(N[C@H]4CNCC[C@@H]4F)n3)n2nc1C1CC1 [Compound 24, 6-(6-cyclopropyl-7-methoxyimidazo[1,2-b]pyridazin-3-yl)-N-((3S,4S)-4-fluoropiperidin-3-yl)pyrazin-2-amine]
Excess HSA Score (THP1 cells; [1]): −308.4 | Excess HSA Score (THP1 cells; [2]): 144.3 | Excess HSA Score (THP1 cells; [3]): −379.5012 | Excess HSA Score (THP1 cells; [4]): −87.03 | Excess HSA Score (THP1 cells; [5]): 107 | Excess HSA Score (THP1 cells; [6]): −94.52 | Excess HSA Score (THP1 cells; [7]): −359.2 | Excess HSA Score (THP1 cells; [8]): 35 | Excess HSA Score (THP1 cells; [9]): 504 | Excess HSA Score (THP1 cells; [10]): −66.32 | Excess HSA Score (THP1 cells; [11]): −416.7 | Excess HSA Score (THP1 cells; [12]): −298.8 | Excess HSA Score (THP1 cells; [13]): −2203 | Comments (THP1 cells; THP1 cells, combination with Prednisolone): Antagonistic | Comments (THP1 cells; [14]): Synergistic | Comments (THP1 cells; [15]): Synergistic at both | Excess HSA Score (THP1 cells; [15]): −571 | Comments (THP1 cells; [16]): Synergism is more | Excess HSA Score (THP1 cells; [16]): −34.1 | Comments (THP1 cells; [17]): Synergistic at both | Excess HSA Score (THP1 cells; [17]): −217.9 | Comments (THP1 cells; [18]): Antagonistic at both | Excess HSA Score (THP1 cells; [18]): 212.2 | Comments (THP1 cells; [19]): Synergistic | Excess HSA Score (THP1 cells; [19]): −37.04 | Comments (THP1 cells; [20]): Synergistic; Optimal | Excess HSA Score (THP1 cells; [20]): −888.9 | Comments (THP1 cells; [21]): Synergistic; Optimal | Excess HSA Score (THP1 cells; [21]): −1905 | Comments (THP1 cells; [22]): Synergistic at both | Excess HSA Score (THP1 cells; [22]): −641.3 | Comments (THP1 cells; [23]): Synergism is more | Excess HSA Score (THP1 cells; [23]): −703.5 | Comments (THP1 cells; [24]): Synergistic at both | Excess HSA Score (THP1 cells; [24]): −318.6 | Comments (THP1 cells; [25]): Antagonistic at both | Excess HSA Score (THP1 cells; [25]): 291 | Comments (THP1 cells; [26]): Antagonistic over | Excess HSA Score (THP1 cells; [26]): 308.6 | Comments (THP1 cells; [27]): Synergistic; Optimal | Excess HSA Score (THP1 cells; [27]): −108.3 | Comments (THP1 cells; [28]): Synergistic; Optimal | Excess HSA Score (THP1 cells; [28]): −1677 | Excess HSA Score (MOLM14(D835Y) cells; [29]): −245.2 | Excess HSA Score (MOLM14(D835Y) cells; [30]): 468.3 | Excess HSA Score (MOLM14(D835Y) cells; [31]): −1011 | Excess HSA Score (MOLM14(D835Y) cells; [32]): 143 | Excess HSA Score (MOLM14(D835Y) cells; [33]): 282.2936 | Excess HSA Score (MOLM14(D835Y) cells; [34]): 491.2 | Excess HSA Score (MOLM14(D835Y) cells; [35]): −732.6 | Excess HSA Score (MOLM14(D835Y) cells; [36]): 169.8 | Excess HSA Score (MOLM14(D835Y) cells; [37]): −279.3 | Excess HSA Score (MOLM14(D835Y) cells; [38]): −1249 | Excess HSA Score (MOLM14(D835Y) cells; [39]): −336.8 | Excess HSA Score (MOLM14(D835Y) cells; [40]): −260.4 | Excess HSA Score (MOLM14(D835Y) cells; [41]): −1890 | Comments (MOLM14(D835Y) cells; [32]): Antagonistic | Comments (MOLM14(D835Y) cells; [41]): Synergistic | Excess HSA Score (MOLM14(D835Y) cells; MOLM14(D835Y), title compound starting conc. 200 nM + (+)-BAY-1251152 starting conc. 1000 nM): −369.2 | Excess HSA Score (MOLM14(D835Y) cells; MOLM14(D835Y), title compound starting conc. 200 nM + Azacitidine (5-Azacytidine) starting conc. 20000 nM): −594 | Excess HSA Score (MOLM14(D835Y) cells; MOLM14(D835Y), title compound starting conc. 200 nM + Palbociclib starting conc. 10000 nM): −490.9 | Excess HSA Score (MOLM14(D835Y) cells; MOLM14(D835Y), title compound starting conc. 200 nM + Prednisolone starting conc. 10000 nM): 12.1697 | Excess HSA Score (MOLM14(D835Y) cells; MOLM14(D835Y), title compound starting conc. 200 nM + TNO-155 starting conc. 10000 nM): −944.7 | Excess HSA Score (MOLM14(D835Y) cells; MOLM14(D835Y), title compound starting conc. 200 nM + Venetoclax (ABT-199) starting conc. 2000 nM): −764.8 | Excess HSA Score (MOLM14(D835Y) cells; MOLM14(D835Y), title compound starting conc. 200 nM + Venetoclax (ABT-199) starting conc. 20000 nM): −71.65 | Excess HSA Score (MOLM14(D835Y) cells; MOLM14(D835Y), title compound starting conc. 20000 nM + (+)-BAY-1251152 starting conc. 1000 nM): −47.77 | Excess HSA Score (MOLM14(D835Y) cells; MOLM14(D835Y), title compound starting conc. 20000 nM + Azacitidine (5-Azacytidine) starting conc. 20000 nM): −49.15 | Excess HSA Score (MOLM14(D835Y) cells; MOLM14(D835Y), title compound starting conc. 20000 nM + Palbociclib starting conc. 10000 nM): 182.1 | Excess HSA Score (MOLM14(D835Y) cells; MOLM14(D835Y), title compound starting conc. 20000 nM + Prednisolone starting conc. 10000 nM): 153.7 | Excess HSA Score (MOLM14(D835Y) cells; MOLM14(D835Y), title compound starting conc. 20000 nM + TNO-155 starting conc. 10000 nM): −94.76 | Excess HSA Score (MOLM14(D835Y) cells; MOLM14(D835Y), title compound starting conc. 20000 nM + Venetoclax (ABT-199) starting conc. 2000 nM): −501.6 | Excess HSA Score (MOLM14(D835Y) cells; MOLM14(D835Y), title compound starting conc. 20000 nM + Venetoclax (ABT-199) starting conc. 20000 nM): −122.6

F[C@H]1CCNC[C@@H]1Nc1cncc(-c2cnc3cc(OC4CC4)ccn23)n1 [Compound 12, 6-(7-cyclopropoxyimidazo[1,2-a]pyridin-3-yl)-N-((3S,4S)-4-fluoropiperidin-3-yl)pyrazin-2-amine]
Excess HSA Score (THP1 cells; [1]): −730.8 | Excess HSA Score (THP1 cells; [2]): −0.2304 | Excess HSA Score (THP1 cells; [3]): −798.3 | Excess HSA Score (THP1 cells; [4]): 477.7 | Excess HSA Score (THP1 cells; [5]): −53.98 | Excess HSA Score (THP1 cells; [6]): −72.51 | Excess HSA Score (THP1 cells; [7]): 575.5 | Excess HSA Score (THP1 cells; [8]): −176.7 | Excess HSA Score (THP1 cells; [9]): 75.74 | Excess HSA Score (THP1 cells; [10]): −498.7 | Excess HSA Score (THP1 cells; [11]): 300.014 | Excess HSA Score (THP1 cells; [12]): −95.31 | Excess HSA Score (THP1 cells; [13]): −1564 | Comments (THP1 cells; THP1 cells, combination with AMG-232): Additive | Comments (THP1 cells; THP1 cells, combination with SNDX-5613): Antagonistic | Comments (THP1 cells; [14]): Synergistic | Excess HSA Score (MOLM14(D835Y) cells; [29]): −346.5 | Excess HSA Score (MOLM14(D835Y) cells; [30]): −464.9 | Excess HSA Score (MOLM14(D835Y) cells; [31]): −869.6 | Excess HSA Score (MOLM14(D835Y) cells; [32]): 381.9 | Excess HSA Score (MOLM14(D835Y) cells; [33]): −10.93 | Excess HSA Score (MOLM14(D835Y) cells; [34]): 176.4 | Excess HSA Score (MOLM14(D835Y) cells; [35]): −72.57 | Excess HSA Score (MOLM14(D835Y) cells; [36]): 908.8 | Excess HSA Score (MOLM14(D835Y) cells; [37]): −187.4 | Excess HSA Score (MOLM14(D835Y) cells; [38]): −906.9 | Excess HSA Score (MOLM14(D835Y) cells; [39]): −87.67 | Excess HSA Score (MOLM14(D835Y) cells; [40]): 256.8 | Excess HSA Score (MOLM14(D835Y) cells; [41]): −1232.2388 | Comments (MOLM14(D835Y) cells; [34]): Antagonistic | Comments (MOLM14(D835Y) cells; [41]): Synergistic
